Measurements as given in patent US10577353B2, “5-(n-[6,5]-fused bicyclic aryl tetrahydroisoquinolin-6-yl) pyridin-3-yl acetic acid derivatives as inhibitors of human immunodeficiency virus replication” (priority 2015, dated 2020).

These molecules were tested on recombinant NL-RLuc virus (NL4-3 derived HIV) (assay: Inhibition of HIV replication (NL-RLuc virus in MT-2 cells, luciferase readout)). Conditions: Human immunodeficiency virus 1, NL43, MT2, 120 h.
Type: cell-based
Description: Inhibition of HIV Replication:
A recombinant NL-RLuc proviral clone was constructed in which a section of the nef gene from NL4-3 was replaced with the Renilla Luciferase gene. This virus is fully infectious and can undergo multiple cycles of replication in cell culture. In addition, the luciferous reporter provides a simple and easy method for quantitating the extent of virus growth and consequently, the antiviral activity of test compounds. The plasmid pNLRLuc contains the proviral NL-Rluc DNA cloned into pUC 18 at the PvuII site. The NL-RLuc virus was prepared by transfection of 293T cells with the plasmid pNLRLuc. Transfections were performed using the LipofectAMINE PLUS kit from Invitrogen (Carlsbad, Calif.) according to the manufacturer and the virus generated was titered in MT-2 cells. For susceptibility analyses, the titrated virus was used to infect MT-2 cells in the presence of compound, and after 5 days of incubation, cells were processed and quantitated for virus growth by the amount of expressed luciferase. Assay media was RPMI 1640 supplemented with 10% heat inactivated fetal bovine serum (FBS), 100 units/ml penicillin G/100 units/ml streptomycin, 10 mM HEPES buffer pH 7.55 and 2 mM L-glutamine. The results from at least 2 experiments were used to calculate the EC50 values. Luciferase was quantitated using the Dual Luciferase kit from Promega (Madison, Wis.). Susceptibility of viruses to compounds was determined by incubation in the presence of serial dilutions of the compound. The 50% effective concentration (EC50) was calculated by using the exponential form of the median effect equation where (Fa)=1/[1+(ED50/drug conc.)^m] (Johnson V A, Byington R T. Infectivity Assay. In Techniques in HIV Research. ed. Aldovini A, Walker B D. 71-76. New York: Stockton Press. 1990).
For `Cc1nc(C)c([C@H](OC(C)(C)C)C(=O)O)c(N2CCC(C)(C)CC2)c1-c1ccc2c(c1)CCN(c1nc3ncc(C(F)(F)F)cc3s1)C2` [Compound 1, (S)-2-(tert-butoxy)-2-(4-(4,4-dimethylpiperidin-1-yl)-2,6-dimethyl-5-(2-(6-(trifluoromethyl)thiazolo[4,5-b]pyridin-2-yl)-1,2,3,4-tetrahydroisoquinolin-6-yl)pyridin-3-yl)acetic acid], the EC50 was 3 nM.
Molecule `Cc1nc(C)c([C@H](OC(C)(C)C)C(=O)O)c(N2CCC(C)(C)CC2)c1-c1ccc2c(c1)CCN(c1nc3cccnc3s1)C2` [Compound 2, (S)-2-(tert-butoxy)-2-(4-(4,4-dimethylpiperidin-1-yl)-2,6-dimethyl-5-(2-(thiazolo[5,4-b]pyridin-2-yl)-1,2,3,4-tetrahydroisoquinolin-6-yl)pyridin-3-yl)acetic acid] has an EC50 of 1 nM.
Molecule `Cc1nc(C)c([C@H](OC(C)(C)C)C(=O)O)c(N2CCC(C)(C)CC2)c1-c1ccc2c(c1)CCN(c1nc3c(Cl)cncc3s1)C2` [Compound 3, (S)-2-(tert-butoxy)-2-(5-(2-(7-chlorothiazolo[5,4-c]pyridin-2-yl)-1,2,3,4-tetrahydroisoquinolin-6-yl)-4-(4,4-dimethylpiperidin-1-yl)-2,6-dimethylpyridin-3-yl)acetic acid] has an EC50 of 1 nM.
With `Cc1nc(C)c([C@H](OC(C)(C)C)C(=O)O)c(N2CCC(C)(C)CC2)c1-c1ccc2c(c1)CCN(c1nc3ccc(Cl)cc3s1)C2` [Compound 4, (S)-2-(tert-butoxy)-2-(5-(2-(6-chlorobenzo[d]thiazol-2-yl)-1,2,3,4-tetrahydroisoquinolin-6-yl)-4-(4,4-dimethylpiperidin-1-yl)-2,6-dimethylpyridin-3-yl)acetic acid] the EC50 was 19 nM.
For `Cc1nc(C)c([C@H](OC(C)(C)C)C(=O)O)c(N2CCC(C)(C)CC2)c1-c1ccc2c(c1)CCN(c1nc3cc(Cl)c(Cl)cc3s1)C2` [Compound 5, (S)-2-(tert-butoxy)-2-(5-(2-(5,6-dichlorobenzo[d]thiazol-2-yl)-1,2,3,4-tetrahydroisoquinolin-6-yl)-4-(4,4-dimethylpiperidin-1-yl)-2,6-dimethylpyridin-3-yl)acetic acid], the EC50 was 12 nM.
In the case of `Cc1ccc2sc(N3CCc4cc(-c5c(C)nc(C)c([C@H](OC(C)(C)C)C(=O)O)c5N5CCC(C)(C)CC5)ccc4C3)nc2c1` [Compound 6, (S)-2-(tert-butoxy)-2-(4-(4,4-dimethylpiperidin-1-yl)-2,6-dimethyl-5-(2-(5-methylbenzo[d]thiazol-2-yl)-1,2,3,4-tetrahydroisoquinolin-6-yl)pyridin-3-yl)acetic acid], the EC50 is reported as 22 nM.
With `Cc1nc(C)c([C@H](OC(C)(C)C)C(=O)O)c(N2CCC(C)(C)CC2)c1-c1ccc2c(c1)CCN(c1nc3c(Cl)cccc3s1)C2` [Compound 7, (S)-2-(tert-butoxy)-2-(5-(2-(4-chlorobenzo[d]thiazol-2-yl)-1,2,3,4-tetrahydroisoquinolin-6-yl)-4-(4,4-dimethylpiperidin-1-yl)-2,6-dimethylpyridin-3-yl)acetic acid] the EC50 was 2 nM.
Molecule `Cc1nc(C)c([C@H](OC(C)(C)C)C(=O)O)c(N2CCC(C)(C)CC2)c1-c1ccc2c(c1)CCN(c1nc3ccc(F)cc3s1)C2` [Compound 8, (S)-2-(tert-butoxy)-2-(4-(4,4-dimethylpiperidin-1-yl)-5-(2-(6-fluorobenzo[d]thiazol-2-yl)-1,2,3,4-tetrahydroisoquinolin-6-yl)-2,6-dimethylpyridin-3-yl)acetic acid] has an EC50 of 5 nM.
In the case of `Cc1ccc2nc(N3CCc4cc(-c5c(C)nc(C)c([C@H](OC(C)(C)C)C(=O)O)c5N5CCC(C)(C)CC5)ccc4C3)sc2c1` [Compound 9, (S)-2-(tert-butoxy)-2-(4-(4,4-dimethylpiperidin-1-yl)-2,6-dimethyl-5-(2-(6-methylbenzo[d]thiazol-2-yl)-1,2,3,4-tetrahydroisoquinolin-6-yl)pyridin-3-yl)acetic acid], the EC50 is reported as 8 nM.
In the case of `Cc1nc(C)c([C@H](OC(C)(C)C)C(=O)O)c(N2CCC(C)(C)CC2)c1-c1ccc2c(c1)CCN(c1nc3ncccc3s1)C2` [Compound 10, (S)-2-(tert-butoxy)-2-(4-(4,4-dimethylpiperidin-1-yl)-2,6-dimethyl-5-(2-(thiazolo[4,5-b]pyridin-2-yl)-1,2,3,4-tetrahydroisoquinolin-6-yl)pyridin-3-yl)acetic acid], the EC50 is reported as 2 nM.
In the case of `Cc1nc(C)c([C@H](OC(C)(C)C)C(=O)O)c(N2CCC(C)(C)CC2)c1-c1ccc2c(c1)CCN(c1nc3cnccc3s1)C2` [Compound 11, (S)-2-(tert-butoxy)-2-(4-(4,4-dimethylpiperidin-1-yl)-2,6-dimethyl-5-(2-(thiazolo[4,5-c]pyridin-2-yl)-1,2,3,4-tetrahydroisoquinolin-6-yl)pyridin-3-yl)acetic acid], the EC50 is reported as 1 nM.
For `COc1ccc2nc(N3CCc4cc(-c5c(C)nc(C)c([C@H](OC(C)(C)C)C(=O)O)c5N5CCC(C)(C)CC5)ccc4C3)sc2c1` [Compound 12, (S)-2-(tert-butoxy)-2-(4-(4,4-dimethylpiperidin-1-yl)-5-(2-(6-methoxybenzo[d]thiazol-2-yl)-1,2,3,4-tetrahydroisoquinolin-6-yl)-2,6-dimethylpyridin-3-yl)acetic acid], the EC50 was 4 nM.
Molecule `Cc1nc(C)c([C@H](OC(C)(C)C)C(=O)O)c(N2CCC(C)(C)CC2)c1-c1ccc2c(c1)CCN(c1nc3ccccc3s1)C2` [Compound 13, (S)-2-(5-(2-(benzo[d]thiazol-2-yl)-1,2,3,4-tetrahydroisoquinolin-6-yl)-4-(4,4-dimethylpiperidin-1-yl)-2,6-dimethylpyridin-3-yl)-2-(tert-butoxy)acetic acid] has an EC50 of 7 nM.
`Cc1nc(C)c([C@H](OC(C)(C)C)C(=O)O)c(N2CCC(C)(C)CC2)c1-c1ccc2c(c1)CCN(c1ncnc3sccc13)C2` [Compound 14, (S)-2-(tert-butoxy)-2-(4-(4,4-dimethylpiperidin-1-yl)-2,6-dimethyl-5-(2-(thieno[2,3-d]pyrimidin-4-yl)-1,2,3,4-tetrahydroisoquinolin-6-yl)pyridin-3-yl)acetic acid] was tested, and the EC50 was 2 nM.
`Cc1nc(C)c([C@H](OC(C)(C)C)C(=O)O)c(N2CCC(C)(C)CC2)c1-c1ccc2c(c1)CCN(c1ncnc3c(C)csc13)C2` [Compound 15, (S)-2-(tert-butoxy)-2-(4-(4,4-dimethylpiperidin-1-yl)-2,6-dimethyl-5-(2-(7-methylthieno[3,2-d]pyrimidin-4-yl)-1,2,3,4-tetrahydroisoquinolin-6-yl)pyridin-3-yl)acetic acid] showed an EC50 of 2 nM.
`Cc1nc(C)c([C@H](OC(C)(C)C)C(=O)O)c(N2CCC(C)(C)CC2)c1-c1ccc2c(c1)CCN(c1ncnc3c1cnn3C)C2` [Compound 16, (S)-2-(tert-butoxy)-2-(4-(4,4-dimethylpiperidin-1-yl)-2,6-dimethyl-5-(2-(1-methyl-1H-pyrazolo[3,4-d]pyrimidin-4-yl)-1,2,3,4-tetrahydroisoquinolin-6-yl)pyridin-3-yl)acetic acid] gave an EC50 of 2 nM.
`Cc1nc(C)c([C@H](OC(C)(C)C)C(=O)O)c(N2CCC(C)(C)CC2)c1-c1ccc2c(c1)CCN(c1nc3ccccc3n1C)C2` [Compound 17, (S)-2-(tert-butoxy)-2-(4-(4,4-dimethylpiperidin-1-yl)-2,6-dimethyl-5-(2-(1-methyl-1H-benzo[d]imidazol-2-yl)-1,2,3,4-tetrahydroisoquinolin-6-yl)pyridin-3-yl)acetic acid] was tested, and the EC50 was 22 nM.
Work on `Cc1nc(C)c([C@H](OC(C)(C)C)C(=O)O)c(N2CCC(C)(C)CC2)c1-c1ccc2c(c1)CCN(c1noc3ccccc13)C2` [Compound 18, (S)-2-(5-(2-(benzo[d]isoxazol-3-yl)-1,2,3,4-tetrahydroisoquinolin-6-yl)-4-(4,4-dimethylpiperidin-1-yl)-2,6-dimethylpyridin-3-yl)-2-(tert-butoxy)acetic acid] yielded an EC50 of 5 nM.
Molecule `Cc1nc(N2CCc3cc(-c4c(C)nc(C)c([C@H](OC(C)(C)C)C(=O)O)c4N4CCC(C)(C)CC4)ccc3C2)c2cnn(C)c2n1` [Compound 19, (S)-2-(tert-butoxy)-2-(5-(2-(1,6-dimethyl-1H-pyrazolo[3,4-d]pyrimidin-4-yl)-1,2,3,4-tetrahydroisoquinolin-6-yl)-4-(4,4-dimethylpiperidin-1-yl)-2,6-dimethylpyridin-3-yl)acetic acid] has an EC50 of 1 nM.
`Cc1nc(C)c([C@H](OC(C)(C)C)C(=O)O)c(N2CCC(C)(C)CC2)c1-c1ccc2c(c1)CCN(c1ncnc3[nH]ccc13)C2` [Compound 20, (S)-2-(5-(2-(7H-pyrrolo[2,3-d]pyrimidin-4-yl)-1,2,3,4-tetrahydroisoquinolin-6-yl)-4-(4,4-dimethylpiperidin-1-yl)-2,6-dimethylpyridin-3-yl)-2-(tert-butoxy)acetic acid] showed an EC50 of 3 nM.
Molecule `Cc1nc(C)c([C@H](OC(C)(C)C)C(=O)O)c(N2CCC(C)(C)CC2)c1-c1ccc2c(c1)CCN(c1nc(O)c3[nH]cnc3n1)C2` [Compound 21, (S)-2-(tert-butoxy)-2-(4-(4,4-dimethylpiperidin-1-yl)-5-(2-(6-hydroxy-7H-purin-2-yl)-1,2,3,4-tetrahydroisoquinolin-6-yl)-2,6-dimethylpyridin-3-yl)acetic acid] has an EC50 of 5990 nM.
